Earlier results in patent US9457010B2, “Compositions for use in treating or preventing metabolic stress-induced lung injury and methods for increasing physical capacity of mammalian livestock” (Nutri-fit GmbH & Co. KG, priority 2009, dated 2016).

System: pulmonary function
Conditions: 3 weeks isocaloric diet; endotoxin challenge

CCCCC/C=C\C/C=C\CCCCCCCC(=O)O [linoleate]
histological evidence in lung: vascular congestion, intra-alveolar edema and alveolar septa thickening
